{
  "source": "ChEMBL document CHEMBL5653616",
  "about": "“FRAX597, a small molecule inhibitor of the p21-activated kinases, inhibits tumorigenesis of neurofibromatosis type 2 (NF2)-associated Schwannomas” (J Biol Chem, 2013)",
  "key": {"[1]": {"target": "Serine/threonine-protein kinase PAK 1 (Homo sapiens, UniProt Q13153)", "sequence (Q13153 whole entry, the tested form may be a part)": "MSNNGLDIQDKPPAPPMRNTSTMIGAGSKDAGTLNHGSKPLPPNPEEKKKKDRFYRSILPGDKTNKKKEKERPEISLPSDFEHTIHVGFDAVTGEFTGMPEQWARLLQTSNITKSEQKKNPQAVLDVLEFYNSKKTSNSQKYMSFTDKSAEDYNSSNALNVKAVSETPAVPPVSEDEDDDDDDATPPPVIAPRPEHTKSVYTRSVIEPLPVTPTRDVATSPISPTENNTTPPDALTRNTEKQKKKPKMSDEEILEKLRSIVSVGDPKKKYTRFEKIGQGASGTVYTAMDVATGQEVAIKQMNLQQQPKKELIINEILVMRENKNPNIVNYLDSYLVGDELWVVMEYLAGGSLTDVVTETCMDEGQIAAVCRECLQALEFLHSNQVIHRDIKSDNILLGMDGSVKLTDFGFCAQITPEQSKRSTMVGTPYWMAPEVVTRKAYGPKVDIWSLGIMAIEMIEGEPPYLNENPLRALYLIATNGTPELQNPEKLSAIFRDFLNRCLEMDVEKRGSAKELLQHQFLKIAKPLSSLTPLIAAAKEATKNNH", "experiment": "Inhibition of TEV protease fused 6His-tagged PAK1 KD (249 to 545 residues) (unknown origin) expressed in Sf21 cells by Z-LYTE biochemical assay"}, "[2]": {"target": "T1, Serine/threonine-protein kinase PAK 4 (Homo sapiens, UniProt O96013)", "experiment": "Inhibition of PAK4 (unknown origin) by Z-LYTE biochemical assay"}, "SC4 [3]": {"system": "SC4", "experiment": "Downregulation of YES1 expression in mouse SC4 [Mouse schwannoma] cells by Western blotting analysis", "type": "functional, cell-based"}, "SC4 [4]": {"system": "SC4", "experiment": "Downregulation of RET expression in mouse SC4 [Mouse schwannoma] cells by Western blotting analysis", "type": "functional, cell-based"}, "[5]": {"experiment": "Inhibition of PAK1 V342F mutant (unknown origin) in presence of ATP by KinaseGlo assay"}, "[6]": {"target": "Macrophage colony-stimulating factor 1 receptor (Homo sapiens) (UniProt P07333)", "conditions": "dose 100.0 nM", "description": "Inhibition of CSF1R (unknown origin) at 100 nM by Z-LYTE biochemical assay relative to control"}, "[7]": {"experiment": "Induction of cell cycle arrest in mouse SC4 [Mouse schwannoma] cells assessed as accumulation of cells at S phase at 1 uM measured upto 96 hrs by propidium iodide staining based flow cytometeric analysis (reference value: 27%)", "type": "functional"}, "[8]": {"target": "Serine/threonine-protein kinase PAK 5 (Homo sapiens) (UniProt Q9P286)", "conditions": "dose 100.0 nM", "description": "Inhibition of PAK7 (unknown origin) at 100 nM by Z-LYTE biochemical assay relative to control"}, "[9]": {"target": "Serine/threonine-protein kinase PAK 2 (Homo sapiens) (UniProt Q13177)", "sequence (Q13177 whole entry)": "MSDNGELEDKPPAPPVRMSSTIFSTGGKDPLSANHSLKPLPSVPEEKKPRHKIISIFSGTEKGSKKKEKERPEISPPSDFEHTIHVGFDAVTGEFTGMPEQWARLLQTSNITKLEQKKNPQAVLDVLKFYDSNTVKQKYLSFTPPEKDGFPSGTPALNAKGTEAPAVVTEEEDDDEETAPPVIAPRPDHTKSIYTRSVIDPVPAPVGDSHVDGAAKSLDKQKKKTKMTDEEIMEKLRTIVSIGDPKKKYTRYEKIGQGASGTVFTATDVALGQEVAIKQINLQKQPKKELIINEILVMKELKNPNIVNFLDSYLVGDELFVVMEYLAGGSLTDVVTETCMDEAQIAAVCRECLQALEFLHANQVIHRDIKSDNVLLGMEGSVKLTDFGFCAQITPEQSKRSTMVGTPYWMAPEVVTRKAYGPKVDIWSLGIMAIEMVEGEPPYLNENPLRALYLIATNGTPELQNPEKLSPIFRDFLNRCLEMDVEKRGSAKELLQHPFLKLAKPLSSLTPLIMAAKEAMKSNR", "conditions": "dose 100.0 nM", "description": "Inhibition of PAK2 (unknown origin) at 100 nM by Z-LYTE biochemical assay relative to control"}, "[10]": {"target": "T1, Serine/threonine-protein kinase PAK 4", "conditions": "dose 100.0 nM", "description": "Inhibition of PAK4 (unknown origin) at 100 nM by Z-LYTE biochemical assay relative to control"}, "SC4 [11]": {"system": "SC4", "experiment": "Antitumor activity against Nf2 knockout mouse SC4 [Mouse schwannoma] cells harbouring pLuc-mCherry implanted in NOD/SCID mouse assessed as reduction in tumor weight at 100 mg/kg, po qd administered for 14 days", "type": "functional, organism-based", "conditions": "time 14.0 day"}, "[12]": {"experiment": "Inhibition of PAK1 V342Y mutant (unknown origin) in presence of ATP by KinaseGlo assay"}, "SC4 [13]": {"system": "SC4", "experiment": "Antiproliferative activity against mouse SC4 [Mouse schwannoma] cells assessed as reduction in cell viability at 1 uM measured upto 96 hrs by coulter counter analysis", "type": "functional, cell-based"}, "[14]": {"target": "Serine/threonine-protein kinase PAK 1 (Mus musculus, UniProt O88643)", "sequence (O88643 whole entry)": "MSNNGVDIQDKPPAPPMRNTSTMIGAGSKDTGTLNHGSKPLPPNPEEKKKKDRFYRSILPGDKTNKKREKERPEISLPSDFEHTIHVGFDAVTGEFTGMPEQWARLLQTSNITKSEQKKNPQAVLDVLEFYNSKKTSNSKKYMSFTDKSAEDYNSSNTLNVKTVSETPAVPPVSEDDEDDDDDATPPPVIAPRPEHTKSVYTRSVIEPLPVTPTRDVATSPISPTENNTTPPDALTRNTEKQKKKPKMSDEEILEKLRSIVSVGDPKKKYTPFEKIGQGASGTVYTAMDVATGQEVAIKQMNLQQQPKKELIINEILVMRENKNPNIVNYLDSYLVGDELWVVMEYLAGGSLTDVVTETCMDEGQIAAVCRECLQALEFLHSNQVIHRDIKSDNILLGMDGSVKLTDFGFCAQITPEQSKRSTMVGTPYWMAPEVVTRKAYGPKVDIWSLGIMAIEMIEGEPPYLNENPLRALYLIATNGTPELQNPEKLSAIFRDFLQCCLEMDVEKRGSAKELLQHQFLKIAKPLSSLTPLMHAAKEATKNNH", "description": "Inhibition of PAK1 in mouse SC4 [Mouse schwannoma] cells assessed as reduction in p-PAK1 at serine 144 residue at 1 to 5 uM incubated for 2 hrs by Western blotting analysis"}, "[15]": {"target": "Tyrosine-protein kinase Yes (Homo sapiens) (UniProt P07947)", "sequence (P07947 2-543 limits assumed)": "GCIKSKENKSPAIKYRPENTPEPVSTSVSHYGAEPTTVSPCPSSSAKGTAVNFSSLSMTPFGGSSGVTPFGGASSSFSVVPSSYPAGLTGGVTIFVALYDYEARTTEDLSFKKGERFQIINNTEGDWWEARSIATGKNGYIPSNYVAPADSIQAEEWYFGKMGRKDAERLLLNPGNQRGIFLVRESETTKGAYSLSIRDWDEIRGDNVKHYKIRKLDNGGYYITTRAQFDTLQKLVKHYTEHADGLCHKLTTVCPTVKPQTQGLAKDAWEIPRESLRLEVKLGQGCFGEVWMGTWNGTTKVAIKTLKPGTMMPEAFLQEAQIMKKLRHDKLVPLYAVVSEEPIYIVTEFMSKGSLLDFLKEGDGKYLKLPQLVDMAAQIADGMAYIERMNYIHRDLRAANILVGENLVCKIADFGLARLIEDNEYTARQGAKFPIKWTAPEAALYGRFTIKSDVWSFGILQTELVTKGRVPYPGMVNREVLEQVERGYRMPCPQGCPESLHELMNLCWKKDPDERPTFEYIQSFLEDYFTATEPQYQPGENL", "conditions": "dose 100.0 nM", "description": "Inhibition of YES1 (unknown origin) at 100 nM by Z-LYTE biochemical assay relative to control"}, "SC4 [16]": {"system": "SC4", "experiment": "Antitumor activity against Nf2 knockout mouse SC4 [Mouse schwannoma] cells harbouring pLuc-mCherry implanted in NOD/SCID mouse assessed as reduction in tumor growth at 100 mg/kg, po qd administered for 14 days by bioluminescence imaging analysis", "type": "functional, organism-based", "conditions": "time 14.0 day"}, "SC4 [17]": {"system": "SC4", "experiment": "Induction of cell cycle arrest in mouse SC4 [Mouse schwannoma] cells assessed as accumulation of cells at sub-G1 phase at 1 uM measured upto 96 hrs by propidium iodide staining based flow cytometeric analysis", "type": "functional"}, "[18]": {"experiment": "Induction of cell cycle arrest in mouse SC4 [Mouse schwannoma] cells assessed as accumulation of cells at G1 phase at 1 uM measured upto 96 hrs by propidium iodide staining based flow cytometeric analysis (reference value: 50%)", "type": "functional"}, "[19]": {"target": "Proto-oncogene tyrosine-protein kinase receptor Ret (Homo sapiens) (UniProt P07949)", "sequence (P07949 whole entry)": "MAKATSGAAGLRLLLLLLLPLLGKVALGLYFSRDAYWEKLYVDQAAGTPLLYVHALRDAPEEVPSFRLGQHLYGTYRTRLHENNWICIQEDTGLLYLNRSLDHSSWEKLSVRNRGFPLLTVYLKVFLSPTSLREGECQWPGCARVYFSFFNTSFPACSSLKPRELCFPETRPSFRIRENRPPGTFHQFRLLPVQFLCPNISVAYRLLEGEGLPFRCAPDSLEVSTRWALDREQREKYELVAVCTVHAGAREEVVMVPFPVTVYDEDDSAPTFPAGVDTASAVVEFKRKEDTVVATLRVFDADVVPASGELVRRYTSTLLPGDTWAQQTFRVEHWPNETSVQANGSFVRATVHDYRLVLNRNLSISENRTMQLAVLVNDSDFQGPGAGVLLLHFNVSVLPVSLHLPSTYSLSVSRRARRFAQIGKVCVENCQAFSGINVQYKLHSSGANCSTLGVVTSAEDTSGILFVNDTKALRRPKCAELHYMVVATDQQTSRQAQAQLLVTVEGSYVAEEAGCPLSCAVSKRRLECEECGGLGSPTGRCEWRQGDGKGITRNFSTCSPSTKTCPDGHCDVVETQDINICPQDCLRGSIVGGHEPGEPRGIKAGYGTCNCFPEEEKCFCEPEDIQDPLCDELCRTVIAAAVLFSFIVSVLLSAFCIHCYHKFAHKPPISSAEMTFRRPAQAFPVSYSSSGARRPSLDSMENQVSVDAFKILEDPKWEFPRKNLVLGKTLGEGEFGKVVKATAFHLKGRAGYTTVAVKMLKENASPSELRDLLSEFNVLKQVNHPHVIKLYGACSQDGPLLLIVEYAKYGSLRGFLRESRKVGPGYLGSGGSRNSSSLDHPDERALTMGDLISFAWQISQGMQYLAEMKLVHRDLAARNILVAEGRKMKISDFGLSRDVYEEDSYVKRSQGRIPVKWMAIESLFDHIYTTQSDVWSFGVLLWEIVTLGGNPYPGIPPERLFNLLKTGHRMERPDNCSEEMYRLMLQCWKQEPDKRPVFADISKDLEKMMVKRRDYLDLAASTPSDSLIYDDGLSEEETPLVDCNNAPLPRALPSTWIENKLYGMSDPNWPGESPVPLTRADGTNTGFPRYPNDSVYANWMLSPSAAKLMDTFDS", "conditions": "dose 100.0 nM", "description": "Inhibition of RET (unknown origin) at 100 nM by Z-LYTE biochemical assay relative to control"}, "[20]": {"target": "Angiopoietin-1 receptor (Homo sapiens) (UniProt Q02763)", "sequence (Q02763 whole entry)": "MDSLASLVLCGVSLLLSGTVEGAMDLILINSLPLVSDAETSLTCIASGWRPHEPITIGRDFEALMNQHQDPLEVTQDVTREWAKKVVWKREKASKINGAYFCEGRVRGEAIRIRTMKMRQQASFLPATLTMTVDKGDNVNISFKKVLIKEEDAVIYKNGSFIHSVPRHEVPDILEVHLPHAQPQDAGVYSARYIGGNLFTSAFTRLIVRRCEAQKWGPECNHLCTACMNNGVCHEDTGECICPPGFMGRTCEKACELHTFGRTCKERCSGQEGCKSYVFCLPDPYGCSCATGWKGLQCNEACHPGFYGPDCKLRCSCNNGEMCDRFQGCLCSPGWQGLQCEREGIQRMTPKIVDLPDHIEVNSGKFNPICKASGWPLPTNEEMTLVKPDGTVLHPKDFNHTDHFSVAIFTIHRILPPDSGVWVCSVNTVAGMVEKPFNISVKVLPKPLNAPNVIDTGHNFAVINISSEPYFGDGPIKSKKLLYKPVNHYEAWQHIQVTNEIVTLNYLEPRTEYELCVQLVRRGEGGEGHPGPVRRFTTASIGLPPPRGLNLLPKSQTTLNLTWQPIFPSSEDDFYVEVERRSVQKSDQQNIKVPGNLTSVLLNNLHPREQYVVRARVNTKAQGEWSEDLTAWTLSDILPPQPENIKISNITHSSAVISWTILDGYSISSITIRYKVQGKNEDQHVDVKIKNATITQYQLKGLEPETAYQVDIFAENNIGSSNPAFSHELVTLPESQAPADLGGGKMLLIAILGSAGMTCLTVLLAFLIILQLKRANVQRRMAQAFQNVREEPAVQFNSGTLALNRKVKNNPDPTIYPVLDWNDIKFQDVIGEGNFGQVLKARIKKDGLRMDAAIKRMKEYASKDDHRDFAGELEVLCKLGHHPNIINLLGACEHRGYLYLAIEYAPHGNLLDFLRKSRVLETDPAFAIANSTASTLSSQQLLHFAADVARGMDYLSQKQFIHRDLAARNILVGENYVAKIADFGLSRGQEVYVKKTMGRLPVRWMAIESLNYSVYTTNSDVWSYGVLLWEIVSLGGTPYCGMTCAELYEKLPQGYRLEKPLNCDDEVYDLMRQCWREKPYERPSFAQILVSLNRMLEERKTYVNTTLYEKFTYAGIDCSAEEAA", "conditions": "dose 100.0 nM", "description": "Inhibition of TEK (unknown origin) at 100 nM by Z-LYTE biochemical assay relative to control"}, "[21]": {"experiment": "Induction of cell cycle arrest in mouse SC4 [Mouse schwannoma] cells assessed as accumulation of cells at G2/M phase at 1 uM measured upto 96 hrs by propidium iodide staining based flow cytometeric analysis (reference value: 22%)", "type": "functional"}, "[22]": {"target": "Serine/threonine-protein kinase PAK 6 (Homo sapiens) (UniProt Q9NQU5)", "sequence (Q9NQU5 whole entry, looked up)": "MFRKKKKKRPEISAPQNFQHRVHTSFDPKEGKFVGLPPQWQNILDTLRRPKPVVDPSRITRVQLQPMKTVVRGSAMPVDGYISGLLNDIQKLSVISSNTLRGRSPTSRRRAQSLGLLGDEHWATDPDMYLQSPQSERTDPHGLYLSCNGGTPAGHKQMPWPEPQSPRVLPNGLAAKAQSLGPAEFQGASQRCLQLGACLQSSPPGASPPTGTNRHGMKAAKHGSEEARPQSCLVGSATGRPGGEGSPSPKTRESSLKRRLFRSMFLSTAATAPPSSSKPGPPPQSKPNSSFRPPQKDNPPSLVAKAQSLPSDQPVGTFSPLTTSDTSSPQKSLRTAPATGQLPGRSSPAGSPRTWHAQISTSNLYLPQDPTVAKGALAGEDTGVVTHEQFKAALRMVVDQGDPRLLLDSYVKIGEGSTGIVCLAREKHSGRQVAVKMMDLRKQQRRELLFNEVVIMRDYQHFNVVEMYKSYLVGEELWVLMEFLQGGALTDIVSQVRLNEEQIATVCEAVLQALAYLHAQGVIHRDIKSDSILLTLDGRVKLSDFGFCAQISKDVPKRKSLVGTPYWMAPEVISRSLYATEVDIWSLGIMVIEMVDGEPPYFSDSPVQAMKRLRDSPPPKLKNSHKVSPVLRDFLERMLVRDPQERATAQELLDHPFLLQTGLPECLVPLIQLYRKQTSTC", "conditions": "dose 100.0 nM", "description": "Inhibition of PAK6 (unknown origin) at 100 nM by Z-LYTE biochemical assay relative to control"}, "SC4 [23]": {"system": "SC4", "experiment": "Downregulation of CSF1R expression in mouse SC4 [Mouse schwannoma] cells by Western blotting analysis", "type": "functional, cell-based"}, "SC4 [24]": {"system": "SC4", "experiment": "Downregulation of TEK1 expression in mouse SC4 [Mouse schwannoma] cells by Western blotting analysis", "type": "functional, cell-based"}},
  "note": "Calls of active or inactive are those of the source. The calls are words filed in the database; no cut-off is given here.",
  "data": [
    {"smiles": "CN1CCN(c2ccc(Nc3ncc4ccc(=O)n(C5CCCC5)c4n3)cc2)CC1", "values": [
      {"measurement": "IC50", "setting": "[1]", "result": 483, "unit": "nM"},
      {"measurement": "IC50", "setting": "[2]", "result": 580, "unit": "nM"}
    ]},
    {"smiles": "CCn1c(=O)c(-c2ccc(-c3cncs3)cc2Cl)cc2cnc(Nc3ccc(N4CCN(C)CC4)cc3)nc21.Cl", "values": [
      {"measurement": "Activity", "setting": "SC4 [3]", "result": "Active"},
      {"measurement": "Activity", "setting": "SC4 [4]", "result": "Active"},
      {"measurement": "IC50", "setting": "[5]", "result": "> 3000", "unit": "nM"},
      {"measurement": "inhibition", "setting": "[6]", "result": 91, "unit": "%"},
      {"measurement": "Activity", "setting": "[7]", "result": 12, "unit": "%"},
      {"measurement": "inhibition", "setting": "[8]", "result": 8, "unit": "%"},
      {"measurement": "inhibition", "setting": "[9]", "result": 93, "unit": "%"},
      {"measurement": "inhibition", "setting": "[10]", "result": 0, "unit": "%"},
      {"measurement": "Activity", "setting": "SC4 [11]", "result": "Active"},
      {"measurement": "IC50", "setting": "[2]", "result": "> 10000", "unit": "nM"},
      {"measurement": "IC50", "setting": "[12]", "result": "> 2000", "unit": "nM"},
      {"measurement": "Activity", "setting": "SC4 [13]", "result": "Active"},
      {"measurement": "IC50", "setting": "[14]", "result": 70, "unit": "nM"},
      {"measurement": "inhibition", "setting": "[15]", "result": 87, "unit": "%"},
      {"measurement": "Activity", "setting": "SC4 [16]", "result": "Active"},
      {"measurement": "Activity", "setting": "SC4 [17]", "result": "inactive"},
      {"measurement": "Activity", "setting": "[18]", "result": 74, "unit": "%"},
      {"measurement": "inhibition", "setting": "[19]", "result": 82, "unit": "%"},
      {"measurement": "inhibition", "setting": "[20]", "result": 87, "unit": "%"},
      {"measurement": "Activity", "setting": "[21]", "result": 11, "unit": "%"},
      {"measurement": "inhibition", "setting": "[22]", "result": 23, "unit": "%"},
      {"measurement": "Activity", "setting": "SC4 [23]", "result": "Active"},
      {"measurement": "Activity", "setting": "SC4 [24]", "result": "Active"}
    ]},
    {"smiles": "CCn1c(=O)c(-c2ccc(Cl)cc2Cl)cc2cnc(Nc3ccc(N4CCN(C)CC4)cc3)nc21", "values": [
      {"measurement": "IC50", "setting": "[1]", "result": 20, "unit": "nM"},
      {"measurement": "IC50", "setting": "[2]", "result": 559, "unit": "nM"}
    ]},
    {"smiles": "Cc1nc(Nc2n[nH]c3c2CN(C(=O)N[C@H](CN(C)C)c2ccccc2)C3(C)C)c2sccc2n1", "values": [
      {"measurement": "Activity", "setting": "SC4 [13]", "result": "Active"}
    ]}
  ]
}
